{"source": "patent US20060142621A1", "about": "“Bismuth dithiocarbamate compounds and uses thereof” (priority 2003, published 2006)", "key": {"[1]": {"system": "OVCAR human ovarian cancer", "assay": "in vivo anti-tumour activity, OVCAR xenograft in nude Balb/C mice", "design": "species or system mouse", "settings": "nude Balb/C mice with OVCAR, 0.14 mg Bi/kg", "experimental": "Female BALB/C-nude mice, obtained from the Animal Resources Centre in Queensland, Australia were used for this experiment. […] Throughout this experiment, the mice were housed in filtered air laminar-flow cabinets and were manipulated following standard aseptic procedures.\nHuman ovarian cancer (OVCAR) cells were provided by Dr Ho (Department of Pharmacy, National University of Singapore). OVCAR cells were grown in RPMI-1640 medium with 10% foetal bovine serum and 5 mM L-glutamine.\nA suspension of OVCAR cells (10^7 cells) were injected subcutaneously (s.c.) in the flank of each animal (0.1 ml per mice). When the volume of the tumour reached approximately 50-100 mm^3, the mice were randomly divided into 2 groups, the test group and the control group, comprising 6 mice in each group.\nThe compound was given subcutaneously to mice in amounts of 0.1 ml/20 g three times every two days in the first week. The dose applied was at the level of the MTD, i.e. 0.14 mg Bi/kg mouse. […]\nIn xenografts transplanted subcutaneously, tumour growth was monitored and the volume of the tumour was determined by measuring its diameter with a vernier calliper every 2-4 days. The Relative Tumour Volume (RTV=tumour volume on day×/tumour volume on day 1) was calculated using the formula width^2×length×0.52."}, "BALB/c mice": {"system": "BALB/c mice", "assay": "Maximum Tolerated Dose (MTD) / lethal dose determination in Balb/C mouse model", "format": "in vivo", "experimental": "The MTD of Bi(S2CNEt2)3 was determined in the following manner. Male and female BALB/c mice obtained from the Laboratory Animal Centre, (National University of Singapore), were used for the study. The mice used were about 4-5 weeks old with a mean body weight of 20±2 g. The 5 mice per cage were kept at room temperature and under standard light conditions. They received standard mouse chow and water. […] The mice in the control group were administered with DMSO only. […] An initial concentration of 20 mg Bi/kg was used for a small sampling population of two mice, one of each gender. If both mice died, the complex concentration was decreased, and the experiment was repeated for another two mice. If one of the mice died but the other survived, the experiment was repeated for a larger sampling population of ten mice, five of each gender, for the same complex concentration. The observation period lasted 14 days. The objective of the experiment was to plot a graph of percent of live mice (number of survivors/ten×100%) against compound dosage (in mg Bi/kg). This procedure enabled the determination of the Maximum Tolerated Dose (at MTD 90% survival of mice)."}, "[2]": {"settings": "i.p. in DMSO, 14 days observation"}}, "data": [{"substance": "bismuth (III) tris(N,N-diethyldithiocarbamate) [Bi(S2CNEt2)3]", "values": [{"measurement": "anti-tumour activity", "setting": "[1]", "result": "significant anti-tumour activity"}, {"measurement": "MTD", "setting": "BALB/c mice; MTD = 90% survival of mice", "result": 0.14, "unit": "mg Bi/kg mouse"}, {"measurement": "LD10", "setting": "BALB/c mice; [2]", "result": 0.14, "unit": "mg/kg"}, {"measurement": "LD50", "setting": "BALB/c mice; [2]", "result": 3.57, "unit": "mg/kg"}, {"measurement": "LD90", "setting": "BALB/c mice; [2]", "result": 7, "unit": "mg/kg"}]}]}
